The record followed here is the supplement of paper PMC11208160.
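Note: IS621 recombinase and bridge RNA in Escherichia coli cells.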

This data set can be described thus: recombinant barcode read abundance after kanamycin selection (control-corrected) (log10(CPM+1)); higher = more efficient recombination; sequences stand for … in AGTGCAGAGAAAATCGGCCAGTTTTCTCTGCCTGCAGTCCGCATGCCGT…AGATTTATGCAGCGGACTGCCTTTCTCCCAAAGTGATAAACCGGACAGTATCATGGACCGGTTTTCCCGGTAATCCGTATTTGCAAGGTTGGTTTCACT; site = the 11-nt target. A digest of the protocol:
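Pooled E. coli screen pairing targets with IS621 bridge RNA target-binding loops. Each oligo (promoter, target, barcode, J23119-driven first 104 bridge RNA bases) was Gibson-cloned into a vector with the remaining 73 bp and T7-inducible recombinase, then co-electroporated with a donor plasmid. Two replicates each were plated on chloramphenicol/ampicillin LB agar (control) or chloramphenicol/ampicillin/kanamycin with 0.1 mM IPTG. Recombination efficiency is recombinant-junction barcode counts as CPM, averaged, control-corrected, reported as log10(CPM+1).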
“CTATGGACTTGGGTTCTAACCTGTTGCCT (site CTATCGACTAG)”: the “recombinant barcode read abundance (log10)” value was 0.196.

Regarding “CTATGGACTTGGGTTCTAACCTGTTGCCT (site CTATGGACTAG)”, the “recombinant barcode read abundance (log10)” value is 0.872.

Take “CTATGGACTTGGGTTCTAACCTGTTGCCT (site CTATTGACTAG)”: the “recombinant barcode read abundance (log10)” value came out at 0.027.

Turning to “CTATTAGCTTGGGTTCTAACCTGTTGCCG (site CTAGTAGCTCG)”, the “recombinant barcode read abundance (log10)” value came out at 0.418.

“CTATTAGCTTGGGTTCTAACCTGTTGCCG (site CTATTAGCTCG)”: the “recombinant barcode read abundance (log10)” value was 0.725.

On to “CTATTGTCTTGGGTTCTAACCTGTTGCGA (site CTATTGTCTAC)”, for which the “recombinant barcode read abundance (log10)” value was 0.0206.

With “CTATTGTCTTGGGTTCTAACCTGTTGCGA (site CTATTGTCTCC)”, the “recombinant barcode read abundance (log10)” value came out at 0.165.

Turning to “CTATTGTCTTGGGTTCTAACCTGTTGCGA (site CTATTGTCTGC)”, the “recombinant barcode read abundance (log10)” value is 0.0565.

Consider “CTATTGTCTTGGGTTCTAACCTGTTGCGA (site CTATTGTCTTC)”, for which the “recombinant barcode read abundance (log10)” value stood at 2.4.

As to “CTCAAAGCTTGGGTTCTAACCTGTTGCCG (site CTCAAAGCTCG)”, the “recombinant barcode read abundance (log10)” value is 0.258.

For “CTCAAAGCTTGGGTTCTAACCTGTTGCCG (site TAGTCCACTGC)”, the “recombinant barcode read abundance (log10)” value came to 0.196.

In the case of “CTCAAAGCTTGGGTTCTAACCTGTTGCGA (site CTCAAAGCTTC)”, the “recombinant barcode read abundance (log10)” value turned out to be 1.38.

For the sequence “CTCAAAGCTTGGGTTCTAACCTGTTGCGA (site GGGGTCCCTAA)”, the “recombinant barcode read abundance (log10)” value came out at 0.189.

Take “CTCAAGGCTTGGGTTCTAACCTGTTGCGT (site CTCAAGGCTAC)”: the “recombinant barcode read abundance (log10)” value was determined as 1.6.

“CTCAAGGCTTGGGTTCTAACCTGTTGCGT (site CTCCAGGCTCC)”: the “recombinant barcode read abundance (log10)” value was 0.128.

In the case of “CTCACACCTTGGGTTCTAACCTGTTGCCT (site ATCACACCTAG)”, the “recombinant barcode read abundance (log10)” value worked out at 0.386.

In the case of “CTCACACCTTGGGTTCTAACCTGTTGCCT (site CTCACACCTAG)”, the “recombinant barcode read abundance (log10)” value is 0.931.

As to “CTCACACCTTGGGTTCTAACCTGTTGCTT (site CTCAAACCTAA)”, the “recombinant barcode read abundance (log10)” value worked out at 0.257.

For “CTCACACCTTGGGTTCTAACCTGTTGCTT (site CTCACACCTAA)”, the “recombinant barcode read abundance (log10)” value was 0.328.

On to “CTCACGACTTGGGTTCTAACCTGTTGCAG (site CTCACGACTCT)”, for which the “recombinant barcode read abundance (log10)” value was found to be 0.273.

In the case of “CTCACGACTTGGGTTCTAACCTGTTGCAG (site GAATGAGCTAG)”, the “recombinant barcode read abundance (log10)” value was 0.245.

“CTCAGGTCTTGGGTTCTAACCTGTTGCCT (site CTCAGGTCTAG)”: the “recombinant barcode read abundance (log10)” value was found to be 1.01.

“CTCAGGTCTTGGGTTCTAACCTGTTGCCT (site CTCAGGTCTTG)”: the “recombinant barcode read abundance (log10)” value turned out to be 0.197.

As for “CTCATACCTTGGGTTCTAACCTGTTGCGT (site CTAATACCTAC)”, the “recombinant barcode read abundance (log10)” value worked out at 0.151.

As to “CTCATACCTTGGGTTCTAACCTGTTGCGT (site CTCATACCTAC)”, the “recombinant barcode read abundance (log10)” value was 1.92.

“CTCATAGCTTGGGTTCTAACCTGTTGCGA (site CTCATAGCTTC)”: the “recombinant barcode read abundance (log10)” value is 1.06.

For the sequence “CTCATAGCTTGGGTTCTAACCTGTTGCGA (site TGAGGGACTAG)”, the “recombinant barcode read abundance (log10)” value was 0.0808.

Turning to “CTCATGTCTTGGGTTCTAACCTGTTGCTT (site CTCATGTCTAA)”, the “recombinant barcode read abundance (log10)” value turned out to be 1.44.

With “CTCATGTCTTGGGTTCTAACCTGTTGCTT (site TTCATGTCTAA)”, the “recombinant barcode read abundance (log10)” value amounted to 0.222.

For “CTCATTCCTTGGGTTCTAACCTGTTGCCT (site CTCATTCCTAA)”, the “recombinant barcode read abundance (log10)” value came to 0.0318.

Turning to “CTCATTCCTTGGGTTCTAACCTGTTGCCT (site CTCATTCCTAC)”, the “recombinant barcode read abundance (log10)” value is 0.216.

On to “CTCATTCCTTGGGTTCTAACCTGTTGCCT (site CTCATTCCTAG)”, for which the “recombinant barcode read abundance (log10)” value amounted to 0.129.

On to “CTCATTCCTTGGGTTCTAACCTGTTGCCT (site CTCATTCCTAT)”, for which the “recombinant barcode read abundance (log10)” value is 0.0571.

“CTCCAAGCTTGGGTTCTAACCTGTTGCCT (site CTACAAGCTAG)”: the “recombinant barcode read abundance (log10)” value came out at 0.105.

With “CTCCAAGCTTGGGTTCTAACCTGTTGCCT (site CTCCAAGCTAG)”, the “recombinant barcode read abundance (log10)” value stood at 0.665.

Regarding “CTCCAAGCTTGGGTTCTAACCTGTTGCCT (site CTGCAAGCTAG)”, the “recombinant barcode read abundance (log10)” value is 0.0619.

On to “CTCCAAGCTTGGGTTCTAACCTGTTGCCT (site CTTCAAGCTAG)”, for which the “recombinant barcode read abundance (log10)” value was found to be 0.0961.

As for “CTCCAATCTTGGGTTCTAACCTGTTGCCT (site CTCCAATCTAG)”, the “recombinant barcode read abundance (log10)” value was 0.666.

Take “CTCCAATCTTGGGTTCTAACCTGTTGCCT (site CTCCTATCTAG)”: the “recombinant barcode read abundance (log10)” value was 0.113.

Turning to “CTCCAGCCTTGGGTTCTAACCTGTTGCGG (site CTCCAACCTCC)”, the “recombinant barcode read abundance (log10)” value worked out at 0.411.

As for “CTCCAGCCTTGGGTTCTAACCTGTTGCGG (site CTCCAGCCTCC)”, the “recombinant barcode read abundance (log10)” value worked out at 1.49.

Consider “CTCCCAACTTGGGTTCTAACCTGTTGCCG (site CTCCCAACTCG)”, for which the “recombinant barcode read abundance (log10)” value worked out at 0.136.

“CTCCCAACTTGGGTTCTAACCTGTTGCCG (site CTCCCTACTCT)”: the “recombinant barcode read abundance (log10)” value is 0.356.

As for “CTCCCAACTTGGGTTCTAACCTGTTGCCT (site CTCCCAACTAG)”, the “recombinant barcode read abundance (log10)” value turned out to be 0.379.

As for “CTCCCAACTTGGGTTCTAACCTGTTGCCT (site TTCCCTACTAG)”, the “recombinant barcode read abundance (log10)” value stood at 0.446.

Turning to “CTCCCATCTTGGGTTCTAACCTGTTGCGT (site CTCCCATCTAC)”, the “recombinant barcode read abundance (log10)” value was 0.874.

With “CTCCCATCTTGGGTTCTAACCTGTTGCGT (site CTCCGATCTCC)”, the “recombinant barcode read abundance (log10)” value stood at 0.165.

In the case of “CTCCCTTCTTGGGTTCTAACCTGTTGCTT (site CTCCCTTCTAA)”, the “recombinant barcode read abundance (log10)” value is 0.534.

With “CTCCCTTCTTGGGTTCTAACCTGTTGCTT (site CTTCCTTCTAG)”, the “recombinant barcode read abundance (log10)” value was found to be 0.104.

As to “CTCCGAGCTTGGGTTCTAACCTGTTGCAC (site CTCCGAGCTGT)”, the “recombinant barcode read abundance (log10)” value stood at 0.201.

Turning to “CTCCGAGCTTGGGTTCTAACCTGTTGCAC (site GGAACGACTAC)”, the “recombinant barcode read abundance (log10)” value is 0.0202.

For “CTCCGATCTTGGGTTCTAACCTGTTGCGG (site CTCCCATCTAC)”, the “recombinant barcode read abundance (log10)” value was determined as 0.

In the case of “CTCCGATCTTGGGTTCTAACCTGTTGCGG (site CTCCGATCTCC)”, the “recombinant barcode read abundance (log10)” value is 0.0434.

With “CTCCGCCCTTGGGTTCTAACCTGTTGCCT (site CTCCGCCCTAG)”, the “recombinant barcode read abundance (log10)” value was 0.776.

Consider “CTCCGCCCTTGGGTTCTAACCTGTTGCCT (site CTCCGTCCTAC)”, for which the “recombinant barcode read abundance (log10)” value stood at 0.0714.

With “CTCCGGGCTTGGGTTCTAACCTGTTGCAG (site CTCCGGGCTCT)”, the “recombinant barcode read abundance (log10)” value is 1.81.

Regarding “CTCCGGGCTTGGGTTCTAACCTGTTGCAG (site TATACACCTAC)”, the “recombinant barcode read abundance (log10)” value was 0.0879.

As to “CTCCGGTCTTGGGTTCTAACCTGTTGCTT (site CACGGGTCTAA)”, the “recombinant barcode read abundance (log10)” value was found to be 0.22.

With “CTCCGGTCTTGGGTTCTAACCTGTTGCTT (site CTCCGGTCTAA)”, the “recombinant barcode read abundance (log10)” value is 1.77.

As for “CTCCGTACTTGGGTTCTAACCTGTTGCAT (site CTCCGAACTAA)”, the “recombinant barcode read abundance (log10)” value came out at 0.0945.

For the sequence “CTCCGTACTTGGGTTCTAACCTGTTGCAT (site CTCCGTACTAT)”, the “recombinant barcode read abundance (log10)” value is 1.14.

On to “CTCCGTCCTTGGGTTCTAACCTGTTGCCG (site CTCCGTCCTCG)”, for which the “recombinant barcode read abundance (log10)” value was 1.25.

“CTCCGTCCTTGGGTTCTAACCTGTTGCCG (site GCCCGTCCTCG)”: the “recombinant barcode read abundance (log10)” value worked out at 0.272.

On to “CTCCGTCCTTGGGTTCTAACCTGTTGCCT (site CTCCGTCCTAG)”, for which the “recombinant barcode read abundance (log10)” value came out at 1.5.

With “CTCCGTCCTTGGGTTCTAACCTGTTGCCT (site CTGCGTCCTAG)”, the “recombinant barcode read abundance (log10)” value stood at 0.252.

Regarding “CTCCGTCCTTGGGTTCTAACCTGTTGCTT (site CTCCGACCTAA)”, the “recombinant barcode read abundance (log10)” value turned out to be 0.106.

On to “CTCCGTCCTTGGGTTCTAACCTGTTGCTT (site CTCCGCCCTAA)”, for which the “recombinant barcode read abundance (log10)” value was 0.111.

As for “CTCCGTCCTTGGGTTCTAACCTGTTGCTT (site CTCCGGCCTAA)”, the “recombinant barcode read abundance (log10)” value turned out to be 0.589.

Consider “CTCCGTCCTTGGGTTCTAACCTGTTGCTT (site CTCCGTCCTAA)”, for which the “recombinant barcode read abundance (log10)” value worked out at 0.445.

With “CTCCTATCTTGGGTTCTAACCTGTTGCCT (site CTCCAATCTAG)”, the “recombinant barcode read abundance (log10)” value came out at 0.238.

With “CTCCTATCTTGGGTTCTAACCTGTTGCCT (site CTCCTATCTAG)”, the “recombinant barcode read abundance (log10)” value came out at 0.848.

In the case of “CTCGAATCTTGGGTTCTAACCTGTTGCTA (site CTCGAACCTCA)”, the “recombinant barcode read abundance (log10)” value is 0.175.

Turning to “CTCGAATCTTGGGTTCTAACCTGTTGCTA (site CTCGAATCTTA)”, the “recombinant barcode read abundance (log10)” value amounted to 1.17.

“CTCGACCCTTGGGTTCTAACCTGTTGCCT (site CTCGACCCTAG)”: the “recombinant barcode read abundance (log10)” value is 1.7.

Take “CTCGACCCTTGGGTTCTAACCTGTTGCCT (site CTGGATCCTAG)”: the “recombinant barcode read abundance (log10)” value amounted to 0.0491.

“CTCGATACTTGGGTTCTAACCTGTTGCTT (site CTCGATACTAA)”: the “recombinant barcode read abundance (log10)” value was 0.684.

In the case of “CTCGATACTTGGGTTCTAACCTGTTGCTT (site CTCGCTACTAA)”, the “recombinant barcode read abundance (log10)” value came out at 0.096.
